From article PMC11573584, “Thanatin and vinyl sulfide analogues as narrow spectrum antimicrobial peptides that synergise with polymyxin B” (Frontiers in Pharmacology, 2024)
Converted amounts (≈) assume the structure as drawn. Read-outs that look alike come from different tables or passages of the source. Numbered stars: 1 amine (or outer) side, 2 acyl side, 3 side chain; on linkers, the order of the positions; unused ones are H or OH. Bridge positions count the residues as written; N and C are the ends. Square brackets hold non-standard residues; d marks the D form. Peptide text beside a SMILES is read from it. X1 = C=C(CC(=O)[*:1])[*:2]; X2 = C=C(CC(=O)[*:2])[*:1]; Dap = NC[C@H](N)C(=O)O

Assays:
[1] = system: Pseudomonas aeruginosa (SVB-B9) (type strain); type: cell-based; details: 18 h
Protocol: (§1) Staphylococcus aureus ATCC 29213, Pseudomonas aeruginosa (SVB-B9) (type strain) and Escherichia coli ATCC 25922 were grown in cation adjusted Mueller Hinton (MH) broth at 37°C with shaking (200 rpm). MIC assays were performed in accordance with the CLSI recommended protocols ([Clinical and Laboratory Standards Institute, 2006], Performance standards for antimicrobial susceptibility testing; sixteenth informational supplement. CLSI document M100-S16, Wayne, PA., 2006). See SI for further details.
(§2) 4 Antimicrobial Testing of Thanatin* (5) and Analogues 8 – 11
(§3) 4.1 Antibacterial Testing
(§4) Staphylococcus aureus ATCC 29213, Pseudomonas aeruginosa (SVB-B9) (type strain) and
(§5) Escherichia coli ATCC 25922 were grown in cation adjusted Mueller Hinton (CAMHB) broth at 37
(§6) °C with shaking (200 rpm). MIC assays were performed in accordance with the CLSI recommended
(§7) protocol (Clinical and Laboratory Standards Institute, 2006, Performance standards for antimicrobial
(§8) susceptibility testing; sixteenth informational supplement. CLSI document M100-S16, Wayne, PA.,
(§9) 2006). Briefly, a two-fold dilution series of the test compounds (from […], final) was
(§10) prepared in triplicate in polypropylene 96-well plates in CAMHB. Fresh cultures of bacteria grown for
(§11) ca. 6 h were diluted accordingly in fresh media before adding 50 µL of inoculum to each well of the
(§12) MIC plate, to achieve a final volume of 100 µL with a uniform CFU/ml of ~5 x105 in each well. A
(§13) growth control (untreated) and sterility control (non-inoculated) well was included for each test
(§14) compound replicate. Plates were incubated at 37 °C with shaking for 18 h before determining the MIC.
(§15) MIC values were determined as the lowest concentration at which no growth was observed consistently
(§16) across all three biological replicates of the assay and within triplicates of each test compound. […]

[2] = system: Escherichia coli ATCC 25922; type: cell-based
Protocol: as §1, §2, §3, §4, §5, §6, §7, §8, §9, §10, §11, §12, §13, §14, §15, §16

[3] = system: Staphylococcus aureus ATCC 29213; assay: microbe, parasite or virus in culture; type: cell-based; details: for MIC: read-out: Minimum inhibitory concentration (MIC)
Protocol: as §1, §2, §3, §4, §5, §6, §7, §8, §9, §10, §11, §12, §13, §14, §15, §16

[4] = system: Candida albicans SC5314 (type strain); assay: microbe, parasite or virus in culture; type: cell-based; details: read-out: Minimum inhibitory concentration (MIC)
Protocol: Candida albicans SC5314 (type strain) was grown using RPMI 1640 media (with glutamine and phenol red, without bicarbonate). MIC assays were performed in accordance with the CLSI recommended protocol ([Clinical and Laboratory Standards Institute, 2006], Performance standards for antimicrobial susceptibility testing; sixteenth informational supplement. CLSI document M100-S16, Wayne, PA., 2006). See SI for further details. […]
Antimicrobial susceptibility of Candida albicans SC5314 (type strain) was assessed by broth
microdilution in accordance with the CLSI recommended protocols (Clinical and Laboratory Standards
Institute, 2006, Performance standards for antimicrobial susceptibility testing; sixteenth informational
supplement. CLSI document M100-S16, Wayne, PA., 2006). Briefly, a two-fold dilution series of the
test compounds (from 64 μM to 0.25 μM, final) was prepared in triplicate in polypropylene 96-well
plates, using RPMI 1640 media (with glutamine and phenol red, without bicarbonate). Inoculum was
prepared from a 24 h old culture by picking 5 colonies (~1 mm in diameter) and resuspending these in
0.85% saline. Upon vortex mixing, the resulting suspension was diluted to provide a solution with
absorbance equivalent to that of a 0.5 McFarland standard, approx. 0.1 OD at 530 nm (using 1 cm path
length cuvette). This suspension was then diluted 1:50 and a further 1:20 with RPMI 1640 media to as
to achieve a final inoculum of […] to 2.5 x 10^3 CFU/mL upon addition to the plate. The plates
were incubated at 35 °C for 48 h, at which time the MIC was determined as the lowest test concentration
at which no turbidity was observed across all three replicates. The assay was performed independently
on three occasions and the reported MIC defined as the lowest concentration in which agreement was
observed for all three biological replicates.

E. coli ATCC 25922 = details: non-cation adjusted media, ref Wu et al. (2013); cited from earlier work
Source text: TABLE 1 Minimum Inhibitory Concentrations (MICs) of thanatin* (5) and similar analogues against a variety of pathogens. | column: Minimum inhibitory concentration (µM) / Thanatin ^a ^, ^b (1); Minimum inhibitory concentration (µM) / S-Thanatin ^a (3) || TABLE 2 Minimum Inhibitory Concentrations (MICs) of thanatin* (5) and analogues (8–11) towards a variety of pathogens. | column: Minimum inhibitory concentration (µM) / 1 (Thanatin) ^a

P. aeruginosa = details: ref Cirioni et al., 2011, cited from earlier work

Compound	Minimum inhibitory concentration (MIC) ([1]; SVB-B9) (type strain) [µM]	Minimum inhibitory concentration (MIC) ([2]; ATCC 25922, 18 h) [µM]	MIC ([3]; ATCC 29213, 18 h) [µM]	MIC ([4]; SC5314, 48 h) [µM]	other results
C=C1CC(=O)NC[C@@H](C(=O)N[C@@H](CCC(N)=O)C(=O)N[C@@H](CCCNC(=N)N)C(=O)N[C@@H](Cc2ccccc2)C(N)=O)NC(=O)[C@H](CCCCN)NC(=O)CNC(=O)[C@H](CO)NC(=O)[C@H](CCCNC(=N)N)NC(=O)[C@H](CCCNC(=N)N)NC(=O)[C@H](CC(N)=O)NC(=O)[C@@H](NC(=O)[C@H](Cc2ccc(O)cc2)NC(=O)[C@@H](NC(=O)[C@@H](NC(=O)[C@@H]2CCCN2C(=O)[C@@H](NC(=O)[C@@H]2CCCN2C(=O)[C@H](CCCCN)NC(=O)[C@H](CCCCN)NC(=O)[C@H](CO)NC(=O)CN)C(C)C)[C@@H](C)CC)[C@@H](C)CC)CS1 [compound 11] (H-GSKKPVPIIYCNRRSGK[Dap]QRF-NH2; linker 11-18 via X2)	>64	8 (≈ 19.9 µg/mL)	>64	>64	
C=C1CC(=O)NCCCC[C@H](NC(=O)[C@H](Cc2ccc(O)cc2)NC(=O)[C@@H](NC(=O)[C@@H](NC(=O)[C@@H]2CCCN2C(=O)[C@@H](NC(=O)[C@@H]2CCCN2C(=O)[C@H](CCCCN)NC(=O)[C@H](CCCCN)NC(=O)[C@H](CO)NC(=O)CN)C(C)C)[C@@H](C)CC)[C@@H](C)CC)C(=O)N[C@@H](CC(N)=O)C(=O)N[C@@H](CCCNC(=N)N)C(=O)N[C@@H](CCCNC(=N)N)C(=O)N[C@@H](CO)C(=O)NCC(=O)N[C@@H](CCCCN)C(=O)N[C@H](C(=O)N[C@@H](CCC(N)=O)C(=O)N[C@@H](CCCNC(=N)N)C(=O)N[C@@H](Cc2ccccc2)C(N)=O)CS1 [compound 8] (H-GSKKPVPIIYKNRRSGKCQRF-NH2; linker 11-18 via X1)	>64	4 (≈ 10.1 µg/mL)	>64	>64	
CC1(C)S[C@@H]2[C@H](NC(=O)[C@H](N)c3ccc(O)cc3)C(=O)N2[C@H]1C(=O)O [AMX, amoxicillin, reference compound]					MIC ([3]; Staphylococcus aureus, ATCC29213, S. aureus ATCC 29213, cation adjusted Mueller Hinton broth, 37 °C, 18 h, ~5 x10^5 CFU/mL, triplicate, three biological replicates): 2 µM (≈ 0.731 µg/mL)
CC[C@H](C)[C@H](NC(=O)[C@@H](NC(=O)[C@@H]1CCCN1C(=O)[C@@H](NC(=O)[C@@H]1CCCN1C(=O)[C@H](CCCCN)NC(=O)[C@H](CCCCN)NC(=O)[C@H](CO)NC(=O)CN)C(C)C)[C@@H](C)CC)C(=O)N[C@@H](Cc1ccc(O)cc1)C(=O)N[C@H]1CSSC[C@@H](C(=O)N[C@@H](CCC(N)=O)C(=O)N[C@@H](CCCNC(=N)N)C(=O)N[C@@H](Cc2ccccc2)C(N)=O)NC(=O)[C@H](CCCCN)NC(=O)CNC(=O)[C@H](CO)NC(=O)[C@H](CCCNC(=N)N)NC(=O)[C@H](CCCNC(=N)N)NC(=O)[C@H](CC(N)=O)NC1=O [Thanatin* (5), thanatin*] (H-GSKKPVPIIYCNRRSGKCQRF-NH2; disulfide 11-18)	>64	1 (≈ 2.43 µg/mL)	>64	>64	selectivity towards E. coli over P. aeruginosa ([2]; ratio of MICs, P. aeruginosa (SVB-B9) vs E. coli ATCC 25922, cation adjusted media): > 64 fold; Minimum inhibitory concentration (MIC) ([3]; S. aureus ATCC 29213, cation adjusted Mueller Hinton broth, 37 °C, 18 h, ~5 x10^5 CFU/mL, triplicate, three biological replicates): no activity
C=C1CC(=O)NCCCC[C@@H](C(=O)N[C@@H](CCC(N)=O)C(=O)N[C@@H](CCCNC(=N)N)C(=O)N[C@@H](Cc2ccccc2)C(N)=O)NC(=O)[C@H](CCCCN)NC(=O)CNC(=O)[C@H](CO)NC(=O)[C@H](CCCNC(=N)N)NC(=O)[C@H](CCCNC(=N)N)NC(=O)[C@H](CC(N)=O)NC(=O)[C@@H](NC(=O)[C@H](Cc2ccc(O)cc2)NC(=O)[C@@H](NC(=O)[C@@H](NC(=O)[C@@H]2CCCN2C(=O)[C@@H](NC(=O)[C@@H]2CCCN2C(=O)[C@H](CCCCN)NC(=O)[C@H](CCCCN)NC(=O)[C@H](CO)NC(=O)CN)C(C)C)[C@@H](C)CC)[C@@H](C)CC)CS1 [compound 10] (H-GSKKPVPIIYCNRRSGKKQRF-NH2; linker 11-18 via X2)	>64	4 (≈ 10.1 µg/mL)	>64	>64	
S-thanatin [S-Thanatin (3)]					Minimum inhibitory concentration (MIC) (E. coli ATCC 25922): 1.6 µM; FICI (P. aeruginosa; S-thanatin with colistin (polymyxin E)): 0.46; MIC (P. aeruginosa): 16 µg/mL
C=C1CC(=O)NC[C@H](NC(=O)[C@H](Cc2ccc(O)cc2)NC(=O)[C@@H](NC(=O)[C@@H](NC(=O)[C@@H]2CCCN2C(=O)[C@@H](NC(=O)[C@@H]2CCCN2C(=O)[C@H](CCCCN)NC(=O)[C@H](CCCCN)NC(=O)[C@H](CO)NC(=O)CN)C(C)C)[C@@H](C)CC)[C@@H](C)CC)C(=O)N[C@@H](CC(N)=O)C(=O)N[C@@H](CCCNC(=N)N)C(=O)N[C@@H](CCCNC(=N)N)C(=O)N[C@@H](CO)C(=O)NCC(=O)N[C@@H](CCCCN)C(=O)N[C@H](C(=O)N[C@@H](CCC(N)=O)C(=O)N[C@@H](CCCNC(=N)N)C(=O)N[C@@H](Cc2ccccc2)C(N)=O)CS1 [compound 9] (H-GSKKPVPIIY[Dap]NRRSGKCQRF-NH2; linker 11-18 via X1)	>64	16 (≈ 39.8 µg/mL)	>64	>64	reduction in potency compared to thanatin* (5) ([2]; E. coli ATCC 25922 MIC): 16 fold
polymyxin B [PMB, reference compound]					Minimum inhibitory concentration (MIC) ([1]; P. aeruginosa (SVB-B9) type strain, cation adjusted Mueller Hinton broth, 37 °C, ~5 x10^5 CFU/mL, triplicate, three biological replicates): 0.125 µM; Minimum inhibitory concentration (MIC) ([2]; E. coli ATCC 25922, cation adjusted Mueller Hinton broth, 37 °C, 18 h, ~5 x10^5 CFU/mL, triplicate, three biological replicates): 0.125 µM
C[C@@H]1[C@H](O)[C@@H](C)/C=C/C=C/C=C/C=C/C=C/C=C/C=C/[C@H](O[C@@H]2O[C@H](C)[C@@H](O)[C@H](N)[C@@H]2O)C[C@@H]2O[C@](O)(C[C@@H](O)C[C@@H](O)[C@H](O)CC[C@@H](O)C[C@@H](O)CC(=O)O[C@H]1C)C[C@H](O)[C@H]2C(=O)O [AMB, amphotericin B, reference compound]					MIC ([4]; Candida albicans, C. albicans SC5314, RPMI 1640 media, 35 °C, 48 h, triplicate, three independent assays): 1 µM (≈ 0.924 µg/mL)
